According to patent US12227548B2, “Use of IRE1α-XBP1 signaling pathway biomarkers for modulating immune responses” (Dana-Farber Cancer Institute, Inc., priority 2018, dated 2025):

Key:
[1] = tested on: Chop and IRE1α/XBP1 pathway in NK cells; experiment: Ex vivo incubation of splenic NK cells with tunicamycin, XBP1 splicing assay and qRT-PCR of UPR genes; format: cell-based, mouse; details: 4 hours ex vivo incubation, FIG. 3A
Excerpt: The quantitative real time PCR data were presented as relative expression to β-Actin. […] BM NK cells were identified by Lin^−CD122 and splenic NK cells were identified by Lin^−NK1.1^+. Ns indicates “not significant”, * indicates p<0.05, ** indicates p<0.01, *** indicates p<0.001 and **** indicates p<0.0001. Two tailed unpaired Student's t-test performed on FIG. 3A. All error bars show standard deviation. N equals 3 mice/group in FIG. 3A and FIG. 3D. N equals 5 mice/group in FIGS. 3B-3C and FIG. 3F. N equals 10 mice in FIG. 3E. Experiments were independently repeated three (FIGS. 3A-3C and 3E-3F) and two ([…] FIG. 3D) times.
Cells were pre-enriched (Miltenyi Biotec) and then sorted to >95% purity and RNA was isolated using the RNeasy® RNA purification mini (for 5×10^5 cells or beyond) or micro (for <5×10^5 cells) kit (Qiagen) according to the manufacturer's protocol. From purified RNA, cDNA was synthesized using the reverse-transcriptase kit gScript™ cDNA synthesis kit (Quanta Biosciences). Quantitative real time PCR (qRT-PCR) was performed in triplicates in a 384-well plate using Taqman® Probes (Themo Fisher) or SYBR® Green (Quanta Biosciences)-based detection on an ABI QuantStudio™ 6 Flex qRT-PCR machine. For experiments in FIG. 9D, CellDirect™ One-Step qRT-PCR Kit with Rox (Life Technologies) was used according to the manufacturer's instruction. […]

[2] = tested on: c-Myc promoter activation in Myc^GFP NK cells; experiment: c-Myc reporter (Myc^GFP) expression in splenic NK cells treated with cytokines; format: cell-based, mouse; details: FIG. 9H
Method: Genes were clustered by functional annotation. […] Equal numbers of Ly49H^+ NK cells from wild type and knockout donors were co-transferred into recipient Ly49H-deficient mice 1 day before infection. […] Anti-XBP1s Ab was used and IgG was used as mock control. FIG. 9H show the representative flow cytometric plots (left) and quantification of c-Myc reporter expression. Before assessment, splenic NK cells from c-Myc reporter mice (Myc^GFP) were treated with indicated cytokines for 16 hours, either in the presence or absence of the IRE1 inhibitor (IRE1i) 4μ8c. […] Equal numbers of Ly49H^+ NK cells from wild type and Myc^NK donors were co-transferred into recipient Ly49H− deficient mice 1 day before infection. […] One sample t-test performed on FIG. 9J. Two tailed unpaired Student's t-test performed on FIG. 9D and FIG. 9G. Two-way analysis of variance (ANOVA) with the Sidak post-test performed on FIGS. 9E, and 9I. […] Each column in FIG. 9B is a different mouse. Data are representative of three (FIGS. 9C-9E and FIG. 9G) and two independent repeats (FIGS. 9F, 9H, 9I and 9J). Data were independently repeated three (FIGS. 9D and 9H) and two (FIGS. 9G-9J). N equals 3 or 4 mice/group in FIG. 9D and FIG. 9J; n equals 3 technical replicates/group in FIG. 9G; n equals 3 replicates/treatment in ex vivo culture in FIG. 9H; n equals 5 mice/group in FIG. 9I. […]

mouse NK cells = experiment: Ex vivo expansion of mouse NK cells (Myc^OE and littermate control) with IL-2 and IL-15, CTV dilution; format: cell-based; details: IL-2 and IL-15 for 3 days, FIG. 15B
Method: FIG. 15A-FIG. 15E show the restoration of c-Myc in the absence of IRE1 rescues the NK cell proliferation defect. […] FIG. 15C-FIG. 15E show WT (Myc^fsf/+ IRE1^f/f Ncr1^Cre−), IRE1^NK (Myc^+/+ IRE1^f/f Ncr1^Cre+) Myc^OE (Myc^fsf/+ IRE1^+/+ Ncr1^Cre+) and Myc^OE IRE1^NK (Myc^fsf/+ IRE1^f/f Ncr1^Cre+) NK cells pre-labeled with CTV and cultured ex vivo with IL-2 and IL-15. […] P values are as indicated; ns=not significant. One sample t-test is performed on FIG. 15A. One-way analysis of variance (ANOVA) with the Tukey post-test is performed on FIGS. 15C-15E. All error bars are s.e.m. N=5 mice/group in FIG. 15A, n=2 mice/group in FIG. 15B and n=4 mice/group in FIGS. 15C-15E. […] Experiments in FIGS. 15B-15E were independently repeated three times.
For FIG. 1E, ˜2×10^5 sorted splenic NK cells were stimulated for 16 hr in complete RPMI containing 10% FBS with recombinant mouse IL-2 ([…]; BioLegend), either in the presence or absence of IL-12 (20 ng/ml; Peprotech) and IL-18 (10 ng/ml; R&D Systems). For ex vivo NK cell expansion experiments, 2.5×10^5 sorted NK cells (>97% purity) were stimulated in RPMI supplemented with 10% FBS, penicillin-streptomycin, L-glutamine and β-mercaptoethanol, and with recombinant mouse IL-2 (10 ng/ml; R&D Systems) and IL-15/15R (40 ng/ml; eBioscience) re-applied every other day. […]

human primary NK cells = experiment: Metabolic flux assay (oxygen consumption rate) of IL-12 and IL-18 activated human primary NK cells; format: cell-based; details: IL-12 and IL-18 for 16 hr, inhibitor 5 μM; FIG. 14C
Method: Genes were clustered by functional annotation. c-Myc-regulated genes (Morrish and Hockenbery (2014) Cold Spring Harb. Perspect. Med. 4:a014225) are shown in black text on the right. […] Primary human NK cells isolated from PBMC were incubated with IL-12 and IL-18 for 16 hr, in the presence or absence of the IRE1α inhibitor 4μ8C (5 uM). Approximately 600,000 cells were plated per well, and the data were normalized to total protein quantification. Oligo (Oligomycin, 1 μM), FCCP (carbonyl cyanide-p-(trifluoromethoxy) phenylhydrazone, 1 μM), R (rotenone, 0.5 μM) and A (antimycin, 0.5 μM).
Purified human primary NK cells from healthy PBMC donors were stimulated with human recombinant IL-12 and IL-18 for 16 hr in complete RPMI medium, in the presence or absence of IRE1 inhibitor 4μ8C (5 μM). After incubation, NK cells were collected, thoroughly washed and then subjected to Seahorse analyses using non-buffered XF base medium containing 25 mM glucose, 2 mM L-glutamine, and 1 mM sodium Pyruvate but lacking serum. […] 6×10^5 NK cells were plated and OCR measurements were analyzed on an XFe96 Extracellular Flux Analyzer (Agilent). After basal OCR measurements were obtained, an OCR trace was recorded in response to oligomycin (1 μM), carbonyl cyanide-p-(trifluoromethoxy) phenylhydrazone (FCCP, 1 μM), and rotenone and antimycin (0.5 μM each) following the XF Cell Mito Stress test kit (Agilent). […]

primary human NK cells = experiment: Ex vivo expansion of primary human NK cells with IL-2 and IL-15, CTV dilution; format: cell-based
Method: Equal numbers of NK cells from wild-type and IRE1^NK donors were labelled with cell proliferation tracing dye CTV, and then co-transferred into lymphocyte-lacking recipient Rag2-/-Il2rg-/- mice. Flow cytometric evaluation of NK cell expansion and proliferation was performed in the spleen of recipient mice at day 3-5 after transfer. […] IRE1^NK and IRE1^f/f NK cells from littermate animals were pre-labeled with CTV and cultured ex vivo with IL-2 and IL-15 for the indicated number of days. […] Two-way analysis of variance (ANOVA) with the Sidak post-test performed on FIGS. 7B and 7D. Two tailed unpaired Student's t-test performed on FIG. 7C. One-way analysis of variance (ANOVA) with the Tukey post-test performed on FIG. 7G. Two tailed paired Student's t-test performed on FIGS. 7F, 7I and 7J. All error bars show the standard deviation. Data are representative of three (FIGS. 7B and 7C) and two (FIGS. 7D-7E and 7G-7H) independent repeats. Data in FIGS. 7F, 7I and 7J are pooled from two independent repeats. N equals 2 mice/group in FIG. 7B. N equals 4 mice/group in FIGS. 7C, 7G and 7H. N equals 3 mice/group (and technical duplicates for ex vivo culture) in FIGS. 7D and 7E. N equals 6, 5 and 5 PBMC donors in FIGS. 7F, 7I and 7J. Peripheral blood mononuclear cells (PBMCs) from healthy donors (New York Blood Center) were isolated by density gradient centrifugation with Ficoll (GE Healthcare). […]

## tunicamycin
[1]
  Chop expression: strongly triggered Chop expression
  IRE1α/XBP1 pathway: upregulation of the IRE1α/XBP1 pathway

## IL-15: recombinant cytokine IL-15
[2]; Myc^GFP NK cells, 16 hours, in the absence of 4μ8c
  c-Myc reporter GFP: c-Myc reporter GFP was induced

## Cc1cc(=O)oc2c(C=O)c(O)ccc12 [4μ8c, 8-formyl-7-hydroxy-4-methylcoumarin]
Mouse NK cells; inhibitor 5 μM vs DMSO
  proliferation of NK cells from Myc^OE mice: proliferated to a comparable extent as in the DMSO-treated control group
Mouse NK cells; inhibitor 5 μM
  proliferation of NK cells from WT littermates: impaired in proliferation
Human primary NK cells
  levels of OXPHOS (basal OCR): significantly decreased levels of OXPHOS
  maximal respiration rate: reduced maximal respiration rate
[2]; Myc^GFP NK cells stimulated with IL-15, or IL-12 and IL-18, 16 hours
  c-Myc reporter GFP induction under IRE1α blockade: GFP induction was largely impeded
Primary human NK cells; IL-2 and IL-15, day 6, FIG. 7I
  proliferation of CD56^bright versus CD56^dim NK cells: primarily hindered the proliferation of CD56^bright NK cells
Primary human NK cells; cultured in IL-2 and IL-15, 5 μM inhibitor vs DMSO, day 6, FIG. 7F
  proliferation of primary human NK cells: significant reduction in proliferation
